# In patent publication US20030198611A1, “Method of treating onychomycosis with urea and an antioxidant” (Bradley Pharmaceuticals, Inc., priority 2002, published 2003):
# Test system: fungi
# Test: antifungal potency of urea compared with known antifungal agents
# Settings: no method or data given
structure (smiles),measurement,value
NC(N)=O [urea],antifungal potency relative to known antifungal agents,equal potency to known antifungal agents
